Columns and labels:
[1] = tested on: inflammation induced by an egg-white albumin-adjuvant system; experiment: Anti-inflammatory activity test (swelling of subplantar region of right hind paw); assay type: in vivo, SD rats; details: oral, 10 mg/weight-kg, 0.5 hour before inflammation inducer; measured 0.5, 1, 2, 3 and 4 hours after; Fig. 1
Method: As a test group, a comparison group and a control group, 5 male SD rats weighing 180 to 220 g were used per group. Each rat was measured for a size (volume) of the subplantar region of the right hind paw.
This aluminum hydroxide was used as an adjuvant. Per rat, a solution obtained by suspending 4 mg of the adjuvant and 0.2 mg of egg-white albumin in 0.1 ml of pertussis vaccine was prepared as an inflammation inducer.
0.5 Hour after the administration, the inflammation inducer was intracutaneously administered into the subplantar region of the right hind paw of each rat to induce swelling.
Then, 0.5, 1, 2, 3 and 4 hours after the administration of the inflammation inducer, each rat was measured for a size (volume) of the subplantar region of the right hind paw by volumetry. […] [formula] Ps: Measurement value of volume of subplantar region at a measurement time (average of the group). Po: Measurement value of volume of subplantar region before administration of inflammation inducer (average of the group).
Each rat of the control group was orally administered with a 10 % Nikkol-containing physiological saline solution in place of the 10 % Nikkol-containing physiological saline solution containing 2',4'-dihydroxychalcone. Thereafter, the same procedures as those for the test group were repeated to determine the swelling as a group.

[2] = tested on: lipid peroxidation reaction of liver microsome; experiment: Cell protection activity test (inhibition of lipid peroxidation, thiobarbituric acid method); assay type: biochemical, rat; details: 37° C 20 minutes, n = 3 - 5; for Inhibition ratio 10^-5 concentration: 10 µM; for Inhibition ratio 10^-4M concentration: final concentration 10^-4M, 100 µM
Method: Cell impairment caused by a radical reaction of an organic compound is known as one of optical affections on the skin.
First, rat liver microsome was obtained by a conventional method, and then, suspended in 1.15 % KCl to prepare a microsome suspension.
Then, the above microsome suspension in an amount of 2 mg as protein was added to a tris-HCl buffer (pH 7.4) containing NADPH (final concentration 0.2 mM), ADP (final concentration 1 mM) and FeCl₃ (final concentration 10 µM). And, 10 µl of a dimethylformamide (DMF) solution of a test compound was added so that the total amount was 1 ml, and the resultant mixture was warmed at 37° C for 20 minutes. The test compound was added such that the final concentration became 10⁻⁴M or 10⁻⁵M.
Thereafter, the amount of formed peroxidation lipid was measured by a thiobarbituric acid method. The inhibition activity of the test compound is expressed in terms of an inhibition ratio (%) in comparison with a control group. […] In addition, in the control group, 10 µl of DMF was used in place of 10 µl of the DMF solution of the test compound.

[3] = Ultraviolet light absorption maximum and absorbance in ethanol solution; assay type: physicochemical; details: for Absorbance 300 nm / Absorbance 350 nm / Absorbance UVmax: concentration of 10 μg/ml in an ethanol solution; for Absorbance UVmax: at UVmax; for UVmax: ultraviolet light absorption maximum
[4] = tested on: rat abdominal cavity exudate mast cell; experiment: Anti-allergic activity test (inhibition of free histamine from mast cell, concanavalin A as freeing agent); assay type: cell-based, SD rat; details: 10 min, concentration of 0.03 mM, n = 5, read-out: free histamine inhibition ratio
Method: At first, an abdominal cavity exudate mast cell of an SD rat was obtained by a conventional method. Then, the above-obtained abdominal cavity mast cell was floated on a Locke solution, and a test substance in a predetermined concentration and phosphatidylcerine (final concentration 3 µg/ml) were added. The mixture was warmed up to 37° C, and after concanavalin A as a freeing agent was added, the mixture was maintained at 37° C for 10 minutes. Thereafter, the reaction solution was centrifugally separated to a sediment portion and a supernatant portion, and the histamine amount of each of these portions was quantitatively determined by an orthophthalaldehyde method. In addition, as a test substance, a dimethylformamide solution (final concentration 0.03 mM) of 3 mM 2',4'-dihydroxychalcone and a DMF solution (final concentration 0.03 mM) of an anti-inflammatory drug (Azelastine) were used. The free histamine ratio was calculated on the basis of the following equation. In control, the solvent alone was added. [formula] Ps: Histamine amount in sediment portion Pr: Histamine amount in supernatant portion. The free histamine inhibition ratio of the test substance was calculated on the basis of the following equation. [formula] S: Free histamine ratio when test substance is added. C: Free histamine ratio when no test substance is added (control). […]

sunburn [5] = experiment: Ultraviolet screening test (ointment on skin exposed to direct sunlight); assay type: in vivo, normally healthy persons
sunburn [6] = experiment: as above; assay type: in vivo, normally healthy persons; remark: listed apart in the source
Method: 10 Milligrams of the ointment containing 1 wt.% of the known chalcone derivative in Example 14, obtained in Example 15, 10 mg of an ointment containing 1 wt.% of p-aminobenzoic acid as a control, obtained in the same manner as in Example 15 except for the use of p-aminobenzoic acid in place of the above known chalcone derivative (to be abbreviated as AO in Table 3 which will follow), and 10 mg of the same hydrophilic ointment as that used in Example 15 (to be abbreviated as HO in Table 2 which will follow) were respectively applied to the femoral region of each of normally healthy persons (10 persons) such that these became circular forms having nearly the same size. Then, these applied portions were exposed to direct sunlight outdoors in fine weather for 2 hours and 30 minutes.
After the exposure, each applied portion was visually observed. The portions where clear sunburn was recognized were taken as +, the portions where slight sunburn was recognized were taken as ±, and the portions where almost no change was recognized were taken as -. The test substances were so evaluated on their ultraviolet screening effects.
The ointment containing 1 wt.% of the novel chalcone derivative of Example 1, obtained in Example 15, the ointment containing 1 wt.% of the novel chalcone derivative of Example 1, the ointment containing 1 wt.% of the novel chalcone derivative of Example 2, the ointment containing 1 wt.% of the novel chalcone derivative of Example 4, the ointment containing 1 wt.% of the novel chalcone derivative of Example 6 and the ointment containing 1 wt.% of the known chalcone derivative of Example 9 were respectively similarly tested on their ultraviolet screening effects. However, the exposure time outdoors in fine weather was set for 1 hour. […]

[7] = tested on: notal skins of Hartley guinea pigs; experiment: Safety test (ointment on skin under adhesive plaster, histological observation); assay type: in vivo; details: 10 mg ointment containing 5 wt.%, covered with adhesive plaster for 24 hours or 72 hours
Method: 10 milligrams of the ointment containing 5 wt.% of the known chalcone derivative of Example 14, obtained in Example 16, was applied to the notal skins of Hartley guinea pigs, and the applied portions were covered with an adhesive plaster for 24 hours or 72 hours.

[8] = ointment containing 1 wt.%, exposure time outdoors 1 hour
[9] = 10 mg ointment containing 1 wt.%, femoral region, 10 persons, direct sunlight 2 hours and 30 minutes

Structure (SMILES) | Absorbance 300 nm [3] | Absorbance 350 nm [3] | Absorbance UVmax [3] | UVmax [3] | inhibition of swelling [1] | Inhibition ratio 10^-5 concentration [2] | Inhibition ratio 10^-4M concentration [2] | inhibition at 30 µM [4] | numbers of persons + (Almost no change) (sunburn [5]; [8]) | numbers of persons + (Clear sunburn was recognized) (sunburn [6]; [8]) | histological comparison of skin of applied portion and skin of normal portion [7] | numbers of persons + (Almost no change) (sunburn [5]; [9]) | numbers of persons + (Clear sunburn was recognized) (sunburn [6]; [9]) | numbers of persons - (Slight sunburn was recognized) (sunburn [6]; [9]) | ultraviolet absorption spectrum (in words) ([3]; Fig. 2)
COc1ccc2c(c1)c(CC(=O)O)c(C)n2C(=O)c1ccc(Cl)cc1 [indomethacin, reference compound] |  |  |  |  | significantly inhibited swelling |  |  |  |  |  |  |  |  |  | 
CCOc1ccccc1/C=C/C(=O)c1ccc(O)cc1O [Example 7] | 0.55~0.70 | 0.85~1.10 | 1.10~1.30 | 365 nm |  | 90 % or more | 90 % or more |  |  |  |  |  |  |  | 
O=C(/C=C/c1ccc([N+](=O)[O-])cc1)c1ccc(O)cc1O [Example 11] | 0.60~0.75 | 0.75~0.90 | 0.80~0.90 | 320 nm |  | 62% | 90 % or more |  |  |  |  |  |  |  | 
CN1CCCC(n2nc(Cc3ccc(Cl)cc3)c3ccccc3c2=O)CC1 (stereo not shown) [Azelastine, reference compound] |  |  |  |  |  |  |  | 20.8 ± 4.2% |  |  |  |  |  |  | 
O=C(/C=C/c1ccccc1)c1ccc(O)cc1 [Example 8] | 1.40~1.50 | 0.75~0.85 | 1.80~2.10 | 318 nm |  | 64% | 90 % or more |  |  |  |  |  |  |  | 
O=C(/C=C/c1ccc2c(c1)OCO2)c1ccc(O)cc1 [Example 12] | 0.30~0.45 | 0.85~1.00 | 0.90~1.00 | 355 nm |  |  | 90 % or more |  |  |  |  |  |  |  | 
O=C(/C=C/c1cccc(F)c1)c1ccc(O)cc1 [Example 2] | 0.90~1.00 | 0.45~0.55 | 0.90~1.20 | 318 nm |  | 16% | 90 % or more |  | 4 persons | 0 persons |  |  |  |  | 
O=C(/C=C/c1ccc(F)cc1)c1ccc(O)cc1O [Example 4] | 0.50~0.65 | 0.60~0.70 | 0.55~0.70 | 346 nm |  | 90 % or more | 90 % or more |  | 4 persons | 0 persons |  |  |  |  | 
Cc1ccc(/C=C/C(=O)c2ccc(O)cc2O)cc1 [Example 9] | 0.40~0.55 | 0.90~1.00 | 0.80~1.10 | 352 nm |  | 25% | 90 % or more |  | 4 persons | 0 persons |  |  |  |  | 
O=C(/C=C/c1ccccc1)c1ccc(O)cc1O [Example 14, 2',4'-dihydroxychalcone] | 0.65~0.75 | 0.60~0.70 | 0.70~0.80 | 306 nm | significantly inhibited swelling | 90 % or more | 90 % or more | 56.9 ± 12.8% |  |  | no difference between these two portions | 9 persons | 0 persons | 1 persons | has an absorption band in most of the wavelength regions of Dorno's ray and long-wavelength ultraviolet light

Further lines, with some results ahead:

Absorbance 300 nm [3] | Absorbance 350 nm [3] | Absorbance UVmax [3] | UVmax [3] | Structure (SMILES) | inhibition of swelling [1] | Inhibition ratio 10^-5 concentration [2] | Inhibition ratio 10^-4M concentration [2] | inhibition at 30 µM [4] | numbers of persons + (Almost no change) (sunburn [5]; [8]) | numbers of persons + (Clear sunburn was recognized) (sunburn [6]; [8]) | histological comparison of skin of applied portion and skin of normal portion [7] | numbers of persons + (Almost no change) (sunburn [5]; [9]) | numbers of persons + (Clear sunburn was recognized) (sunburn [6]; [9]) | numbers of persons - (Slight sunburn was recognized) (sunburn [6]; [9]) | ultraviolet absorption spectrum (in words) ([3]; Fig. 2)
0.35~0.50 | 0.85~1.00 | 1.00~1.15 | 365 nm | O=C(/C=C/c1ccc(O)c(O)c1)c1ccc(O)cc1 [Example 13] |  | 84% | 90 % or more |  |  |  |  |  |  |  | 
0.60~0.75 | 0.50~0.65 | 0.60~0.80 | 305 nm | O=C(/C=C/c1ccc(C(F)(F)F)cc1)c1ccc(O)cc1O [Example 5] |  | 15% | 90 % or more |  |  |  |  |  |  |  | 
0.20~0.40 | 0.60~0.75 | 0.80~0.95 | 364 nm | CCOc1ccc(/C=C/C(=O)c2ccc(O)cc2O)cc1 [Example 6] |  | 30% | 90 % or more |  | 3 persons | 0 persons |  |  |  |  | 
0.70~0.85 | 0.80~0.95 | 0.80~1.10 | 320 nm | O=C(/C=C/c1ccccc1F)c1ccc(O)cc1O [Example 3] |  | 90 % or more | 90 % or more |  |  |  |  |  |  |  | 
0.85~1.00 | 1.15~1.30 | 1.20~1.40 | 322 nm | O=C(/C=C/c1ccc(Cl)cc1)c1ccc(O)cc1O [Example 10] |  | 32% | 90 % or more |  |  |  |  |  |  |  | 
0.70~0.85 | 0.70~0.85 | 0.80~0.95 | 317 nm | O=C(/C=C/c1cccc(F)c1)c1ccc(O)cc1O [Example 1, 2',4'-dihydroxy-3-fluoro-chalcone] |  | 90 % or more | 90 % or more |  | 4 persons | 0 persons | no histological difference |  |  |  | 
